The supplement of paper PMC10307832

Key:
Assay in all cases: relative viability (nuclei count vs DMSO), 5 days (fraction); higher = more cells survive
NCI-H2087 = tested on: NCI-H2087
Method in brief: (§1)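 Relative viability divides the nuclei count in treated wells by that in vehicle wells. Lung cancer cell lines were seeded in 1536-well plates, dosed by pin tool the next day, and fixed and stained after 5 days in one step with final 0.05% Triton X-100, 1% formaldehyde and 1 ug/ml Hoechst. Dosing was a single drug or a fixed anchor-drug dose plus five library-drug doses (not always all listed) in √10 steps, and values are medians of duplicate plates imaged at 4×.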

BEN = tested on: BEN
Method in brief: as §1

H3255 = tested on: H3255
Method in brief: as §1

EPLC-272H = tested on: EPLC-272H
Method in brief: as §1

HCC-827 = tested on: HCC-827
Method in brief: as §1

NCI-H1666 = tested on: NCI-H1666
Method in brief: as §1

LU99A = tested on: LU99A
Method in brief: as §1

NCI-H647 = tested on: NCI-H647
Method in brief: as §1

PC-3 [JPC-3] = tested on: PC-3 [JPC-3]
Method in brief: as §1

NCI-H2342 = tested on: NCI-H2342
Method in brief: as §1

LCLC-97TM1 = tested on: LCLC-97TM1
Method in brief: as §1

NCI-H650 = tested on: NCI-H650
Method in brief: as §1

SW 1573 = tested on: SW 1573
Method in brief: as §1

LOU-NH91 = tested on: LOU-NH91
Method in brief: as §1

NCI-H1975 = tested on: NCI-H1975
Method in brief: as §1

NCI-H1437 = tested on: NCI-H1437
Method in brief: as §1

NCI-H2170 = tested on: NCI-H2170
Method in brief: as §1

NCI-H2085 = tested on: NCI-H2085
Method in brief: as §1

HCC-44 = tested on: HCC-44
Method in brief: as §1

COR-L 105 = tested on: COR-L 105
Method in brief: as §1

EKVX = tested on: EKVX
Method in brief: as §1

201T = tested on: 201T
Method in brief: as §1

Cc1sc2c(c1C)C(c1ccc(Cl)cc1)=N[C@@H](CC(=O)OC(C)(C)C)c1nnc(C)n1-2 [JQ1] + CC(=O)Nc1cccc(-n2c(=O)n(C3CC3)c(=O)c3c(Nc4ccc(I)cc4F)n(C)c(=O)c(C)c32)c1 [Trametinib] (partner 0.02 µM)
relative viability (NCI-H2087; first compound 0.04 µM): 0.192 | relative viability (NCI-H2087; first compound 0.1265 µM): 0.179 | relative viability (NCI-H2087; first compound 0.4 µM): 0.18 | relative viability (NCI-H2087; first compound 1.265 µM): 0.142 | relative viability (NCI-H2087; first compound 4 µM): 0.167 | relative viability (BEN; first compound 0.04 µM): 1.05 | relative viability (BEN; first compound 0.1265 µM): 0.829 | relative viability (BEN; first compound 0.4 µM): 0.557 | relative viability (BEN; first compound 1.265 µM): 0.481 | relative viability (BEN; first compound 4 µM): 0.41 | relative viability (H3255; first compound 0.04 µM): 0.58 | relative viability (H3255; first compound 0.4 µM): 0.452 | relative viability (H3255; first compound 1.265 µM): 0.345 | relative viability (H3255; first compound 4 µM): 0.322 | relative viability (EPLC-272H; first compound 0.04 µM): 0.278 | relative viability (EPLC-272H; first compound 0.1265 µM): 0.252 | relative viability (EPLC-272H; first compound 0.4 µM): 0.273 | relative viability (EPLC-272H; first compound 1.265 µM): 0.254 | relative viability (EPLC-272H; first compound 4 µM): 0.215 | relative viability (HCC-827; first compound 0.04 µM): 0.562 | relative viability (HCC-827; first compound 0.1265 µM): 0.519 | relative viability (HCC-827; first compound 1.265 µM): 0.543 | relative viability (HCC-827; first compound 4 µM): 0.474 | relative viability (NCI-H1666; first compound 0.04 µM): 0.92 | relative viability (NCI-H1666; first compound 0.1265 µM): 0.874 | relative viability (NCI-H1666; first compound 0.4 µM): 0.847 | relative viability (NCI-H1666; first compound 1.265 µM): 0.641 | relative viability (NCI-H1666; first compound 4 µM): 0.757 | relative viability (LU99A; first compound 0.04 µM): 0.544 | relative viability (LU99A; first compound 0.4 µM): 0.335 | relative viability (LU99A; first compound 1.265 µM): 0.209 | relative viability (LU99A; first compound 4 µM): 0.194 | relative viability (NCI-H647; first compound 0.04 µM): 0.403 | relative viability (NCI-H647; first compound 0.1265 µM): 0.326 | relative viability (NCI-H647; first compound 0.4 µM): 0.214 | relative viability (NCI-H647; first compound 1.265 µM): 0.126 | relative viability (NCI-H647; first compound 4 µM): 0.0652 | relative viability (PC-3 [JPC-3]; first compound 0.04 µM): 0.683 | relative viability (PC-3 [JPC-3]; first compound 0.1265 µM): 0.609 | relative viability (PC-3 [JPC-3]; first compound 0.4 µM): 0.49 | relative viability (PC-3 [JPC-3]; first compound 1.265 µM): 0.475 | relative viability (PC-3 [JPC-3]; first compound 4 µM): 0.461 | relative viability (NCI-H2342; first compound 0.04 µM): 0.782 | relative viability (NCI-H2342; first compound 0.1265 µM): 0.8 | relative viability (NCI-H2342; first compound 0.4 µM): 0.905 | relative viability (NCI-H2342; first compound 1.265 µM): 0.803 | relative viability (NCI-H2342; first compound 4 µM): 0.672 | relative viability (LCLC-97TM1; first compound 0.04 µM): 0.187 | relative viability (LCLC-97TM1; first compound 0.1265 µM): 0.149 | relative viability (LCLC-97TM1; first compound 0.4 µM): 0.189 | relative viability (LCLC-97TM1; first compound 1.265 µM): 0.102 | relative viability (LCLC-97TM1; first compound 4 µM): 0.102 | relative viability (NCI-H650; first compound 0.04 µM): 0.852 | relative viability (NCI-H650; first compound 0.1265 µM): 0.812 | relative viability (NCI-H650; first compound 0.4 µM): 0.779 | relative viability (NCI-H650; first compound 1.265 µM): 0.371 | relative viability (NCI-H650; first compound 4 µM): 0.275 | relative viability (SW 1573; first compound 0.04 µM): 0.422 | relative viability (SW 1573; first compound 0.1265 µM): 0.357 | relative viability (SW 1573; first compound 0.4 µM): 0.277 | relative viability (SW 1573; first compound 1.265 µM): 0.189 | relative viability (SW 1573; first compound 4 µM): 0.187 | relative viability (LOU-NH91; first compound 0.04 µM): 0.774 | relative viability (LOU-NH91; first compound 0.1265 µM): 0.719 | relative viability (LOU-NH91; first compound 0.4 µM): 0.603 | relative viability (LOU-NH91; first compound 1.265 µM): 0.479 | relative viability (LOU-NH91; first compound 4 µM): 0.414 | relative viability (NCI-H1975; first compound 0.04 µM): 0.342 | relative viability (NCI-H1975; first compound 0.1265 µM): 0.27 | relative viability (NCI-H1975; first compound 0.4 µM): 0.244 | relative viability (NCI-H1975; first compound 1.265 µM): 0.217 | relative viability (NCI-H1975; first compound 4 µM): 0.198 | relative viability (NCI-H1437; first compound 0.04 µM): 0.443 | relative viability (NCI-H1437; first compound 0.1265 µM): 0.519 | relative viability (NCI-H1437; first compound 0.4 µM): 0.344 | relative viability (NCI-H1437; first compound 1.265 µM): 0.35 | relative viability (NCI-H1437; first compound 4 µM): 0.26 | relative viability (NCI-H2170; first compound 0.04 µM): 0.861 | relative viability (NCI-H2170; first compound 0.1265 µM): 0.843 | relative viability (NCI-H2170; first compound 0.4 µM): 0.637 | relative viability (NCI-H2170; first compound 1.265 µM): 0.585 | relative viability (NCI-H2170; first compound 4 µM): 0.519 | relative viability (NCI-H2085; first compound 0.04 µM): 0.376 | relative viability (NCI-H2085; first compound 0.1265 µM): 0.551 | relative viability (NCI-H2085; first compound 0.4 µM): 0.407 | relative viability (NCI-H2085; first compound 1.265 µM): 0.248 | relative viability (NCI-H2085; first compound 4 µM): 0.239 | relative viability (HCC-44; first compound 0.04 µM): 1.02 | relative viability (HCC-44; first compound 0.1265 µM): 1.09 | relative viability (HCC-44; first compound 0.4 µM): 0.766 | relative viability (HCC-44; first compound 1.265 µM): 0.649 | relative viability (HCC-44; first compound 4 µM): 0.493 | relative viability (COR-L 105; first compound 0.04 µM): 0.46 | relative viability (COR-L 105; first compound 0.1265 µM): 0.362 | relative viability (COR-L 105; first compound 0.4 µM): 0.377 | relative viability (COR-L 105; first compound 1.265 µM): 0.355 | relative viability (COR-L 105; first compound 4 µM): 0.357 | relative viability (EKVX; first compound 0.04 µM): 0.286 | relative viability (EKVX; first compound 0.1265 µM): 0.38 | relative viability (EKVX; first compound 0.4 µM): 0.366 | relative viability (EKVX; first compound 1.265 µM): 0.432 | relative viability (EKVX; first compound 4 µM): 0.271 | relative viability (201T; first compound 0.04 µM): 0.72 | relative viability (201T; first compound 0.4 µM): 0.538 | relative viability (201T; first compound 1.265 µM): 0.505 | relative viability (201T; first compound 4 µM): 0.391
